Source: ChEMBL document CHEMBL4507329, “Data for DCP probe BTZO-1” (2021)

Columns and labels:
[1] = target: Ribosomal protein S6 kinase alpha-4 (Homo sapiens) (UniProt O75676); conditions: Compound concentration 1000.0 nM
[2] = target: Bone morphogenetic protein receptor type-1B (Homo sapiens) (UniProt O00238); conditions: Compound concentration 1000.0 nM
[3] = target: Mitogen-activated protein kinase kinase kinase 19 (Homo sapiens) (UniProt Q56UN5); conditions: Compound concentration 1000.0 nM
[4] = target: Vascular endothelial growth factor receptor 1 (Homo sapiens) (UniProt P17948); conditions: Compound concentration 1000.0 nM
[5] = target: Dual specificity tyrosine-phosphorylation-regulated kinase 1A (Homo sapiens) (UniProt Q13627); conditions: Compound concentration 1000.0 nM
[6] = target: Tyrosine-protein kinase Lyn (Homo sapiens) (UniProt P07948); conditions: Compound concentration 1000.0 nM
[7] = target: Serine/threonine-protein kinase pim-2 (Homo sapiens) (UniProt Q9P1W9); conditions: Compound concentration 1000.0 nM
[8] = target: Ribosomal protein S6 kinase beta-1 (Homo sapiens) (UniProt P23443); conditions: Compound concentration 1000.0 nM
[9] = target: Ephrin type-A receptor 2 (Homo sapiens) (UniProt P29317); conditions: Compound concentration 1000.0 nM
Sequence of Ephrin type-A receptor 2 (Homo sapiens) (P29317 whole entry): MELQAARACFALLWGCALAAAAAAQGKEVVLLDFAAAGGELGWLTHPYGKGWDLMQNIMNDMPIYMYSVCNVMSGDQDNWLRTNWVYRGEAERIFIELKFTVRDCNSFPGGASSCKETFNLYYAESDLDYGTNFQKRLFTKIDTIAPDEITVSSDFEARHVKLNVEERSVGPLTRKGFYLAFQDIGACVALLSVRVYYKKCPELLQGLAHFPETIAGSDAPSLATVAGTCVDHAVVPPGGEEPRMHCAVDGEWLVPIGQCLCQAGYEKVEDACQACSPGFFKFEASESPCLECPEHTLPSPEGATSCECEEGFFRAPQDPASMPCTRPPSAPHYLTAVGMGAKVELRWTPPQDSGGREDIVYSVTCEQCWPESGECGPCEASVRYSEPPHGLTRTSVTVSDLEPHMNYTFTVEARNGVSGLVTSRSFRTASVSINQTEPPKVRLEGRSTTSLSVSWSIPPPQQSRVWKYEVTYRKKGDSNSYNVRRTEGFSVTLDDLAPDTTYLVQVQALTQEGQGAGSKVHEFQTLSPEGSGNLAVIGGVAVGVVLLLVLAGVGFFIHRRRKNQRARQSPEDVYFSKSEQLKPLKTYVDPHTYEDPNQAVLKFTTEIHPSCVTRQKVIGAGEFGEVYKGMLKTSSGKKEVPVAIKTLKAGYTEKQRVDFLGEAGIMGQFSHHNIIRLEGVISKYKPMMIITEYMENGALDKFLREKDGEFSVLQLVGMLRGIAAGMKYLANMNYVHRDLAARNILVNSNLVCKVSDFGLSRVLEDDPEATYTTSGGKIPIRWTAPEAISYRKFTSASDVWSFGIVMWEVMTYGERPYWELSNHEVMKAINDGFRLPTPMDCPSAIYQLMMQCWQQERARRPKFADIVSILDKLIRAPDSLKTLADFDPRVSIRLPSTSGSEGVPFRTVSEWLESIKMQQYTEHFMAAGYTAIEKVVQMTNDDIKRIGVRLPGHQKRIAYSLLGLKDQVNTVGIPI

[10] = target: MAP kinase-interacting serine/threonine-protein kinase 2 (Homo sapiens) (UniProt Q9HBH9); conditions: Compound concentration 1000.0 nM
[11] = target: Testis-specific serine/threonine-protein kinase 1 (Homo sapiens) (UniProt Q9BXA7); conditions: Compound concentration 1000.0 nM
[12] = target: Beta-3 adrenergic receptor (Homo sapiens) (UniProt P13945); conditions: Compound concentration 10.0 uM
[13] = target: Protein-tyrosine kinase 2-beta (Homo sapiens) (UniProt Q14289); conditions: Compound concentration 1000.0 nM
[14] = target: Muscarinic acetylcholine receptor M2 (Homo sapiens) (UniProt P08172); conditions: Compound concentration 10.0 uM
Sequence of Muscarinic acetylcholine receptor M2 (Homo sapiens) (P08172 whole entry): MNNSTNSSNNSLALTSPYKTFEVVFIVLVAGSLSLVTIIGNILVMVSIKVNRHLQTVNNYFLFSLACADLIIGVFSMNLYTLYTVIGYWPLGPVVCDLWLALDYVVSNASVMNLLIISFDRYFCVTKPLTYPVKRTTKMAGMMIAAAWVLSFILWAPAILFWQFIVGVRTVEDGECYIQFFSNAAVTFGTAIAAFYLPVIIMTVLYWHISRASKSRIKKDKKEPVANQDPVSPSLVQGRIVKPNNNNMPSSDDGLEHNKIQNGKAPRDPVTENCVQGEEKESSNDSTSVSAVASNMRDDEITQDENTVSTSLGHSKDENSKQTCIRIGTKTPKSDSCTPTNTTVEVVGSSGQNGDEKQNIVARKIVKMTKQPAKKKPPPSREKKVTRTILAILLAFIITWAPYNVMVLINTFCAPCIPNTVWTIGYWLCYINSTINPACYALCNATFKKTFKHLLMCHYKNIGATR

[15] = tested on: eIF-2-alpha kinase GCN2 (Homo sapiens), Q9P2K8 [S808G]; conditions: Compound concentration 1000.0 nM
Sequence of eIF-2-alpha kinase GCN2 (Homo sapiens), Q9P2K8 [S808G] (Q9P2K8 whole entry S808G): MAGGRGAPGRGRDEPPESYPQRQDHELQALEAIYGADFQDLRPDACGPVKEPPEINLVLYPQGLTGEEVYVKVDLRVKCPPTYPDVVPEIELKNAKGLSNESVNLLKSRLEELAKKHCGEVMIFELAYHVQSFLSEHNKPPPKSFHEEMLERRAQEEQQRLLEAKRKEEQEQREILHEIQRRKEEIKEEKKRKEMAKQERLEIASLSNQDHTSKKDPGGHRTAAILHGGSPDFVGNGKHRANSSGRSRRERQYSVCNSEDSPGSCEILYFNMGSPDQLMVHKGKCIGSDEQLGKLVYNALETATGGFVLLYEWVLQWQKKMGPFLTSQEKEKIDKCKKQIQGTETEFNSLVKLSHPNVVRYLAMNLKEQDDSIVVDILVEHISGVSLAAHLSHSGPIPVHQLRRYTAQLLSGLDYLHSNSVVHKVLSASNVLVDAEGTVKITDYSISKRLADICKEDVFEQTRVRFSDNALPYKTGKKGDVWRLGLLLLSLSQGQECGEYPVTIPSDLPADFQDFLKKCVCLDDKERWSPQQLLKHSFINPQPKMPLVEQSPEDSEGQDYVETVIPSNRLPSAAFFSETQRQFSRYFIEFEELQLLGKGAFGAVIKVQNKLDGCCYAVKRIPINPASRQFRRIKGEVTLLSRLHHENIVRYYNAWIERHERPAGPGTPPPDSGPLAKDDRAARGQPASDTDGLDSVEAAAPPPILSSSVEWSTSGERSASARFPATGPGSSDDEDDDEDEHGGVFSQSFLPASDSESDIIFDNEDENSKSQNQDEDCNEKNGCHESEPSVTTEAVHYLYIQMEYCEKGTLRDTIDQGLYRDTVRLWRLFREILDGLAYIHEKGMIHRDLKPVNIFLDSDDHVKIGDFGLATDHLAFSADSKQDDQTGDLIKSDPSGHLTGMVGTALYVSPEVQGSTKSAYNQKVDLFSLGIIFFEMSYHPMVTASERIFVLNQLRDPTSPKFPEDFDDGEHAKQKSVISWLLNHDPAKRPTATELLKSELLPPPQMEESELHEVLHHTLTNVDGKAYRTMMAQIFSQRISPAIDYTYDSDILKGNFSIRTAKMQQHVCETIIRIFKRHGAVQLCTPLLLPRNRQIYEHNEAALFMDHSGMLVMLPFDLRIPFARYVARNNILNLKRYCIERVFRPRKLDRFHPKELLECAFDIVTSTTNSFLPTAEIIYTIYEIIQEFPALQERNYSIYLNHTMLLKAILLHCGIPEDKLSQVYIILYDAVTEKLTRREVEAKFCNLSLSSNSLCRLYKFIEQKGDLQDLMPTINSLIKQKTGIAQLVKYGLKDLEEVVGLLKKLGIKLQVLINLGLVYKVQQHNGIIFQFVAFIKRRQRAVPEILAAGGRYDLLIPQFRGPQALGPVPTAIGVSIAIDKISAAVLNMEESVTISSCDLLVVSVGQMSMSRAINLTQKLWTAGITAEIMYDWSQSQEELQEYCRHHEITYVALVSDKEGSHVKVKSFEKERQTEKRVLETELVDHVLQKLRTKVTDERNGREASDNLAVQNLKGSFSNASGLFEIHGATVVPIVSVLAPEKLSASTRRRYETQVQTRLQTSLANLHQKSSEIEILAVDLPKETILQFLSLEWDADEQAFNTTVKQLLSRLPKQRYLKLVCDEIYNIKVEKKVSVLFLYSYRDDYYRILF

[16] = tested on: Tyrosine-protein kinase ABL1 (Homo sapiens), P00519 [F317I]; conditions: Compound concentration 1000.0 nM
[17] = target: 5-hydroxytryptamine receptor 1E (Homo sapiens) (UniProt P28566); conditions: Compound concentration 10.0 uM
[18] = tested on: Receptor-type tyrosine-protein kinase FLT3 (Homo sapiens), P36888 [UNDEFINED MUTATION]; conditions: Compound concentration 1000.0 nM
[19] = target: Serine/threonine-protein kinase WNK1 (Homo sapiens) (UniProt Q9H4A3); conditions: Compound concentration 1000.0 nM
[20] = target: Kappa-type opioid receptor (Homo sapiens) (UniProt P41145); conditions: Compound concentration 10.0 uM
[21] = target: TGF-beta receptor type-1 (Homo sapiens) (UniProt P36897); conditions: Compound concentration 1000.0 nM
[22] = target: BMP-2-inducible protein kinase (Homo sapiens) (UniProt Q9NSY1); conditions: Compound concentration 1000.0 nM
[23] = tested on: Tyrosine-protein kinase ABL1 (Homo sapiens), P00519 [E255K]; conditions: Compound concentration 1000.0 nM
[24] = tested on: Receptor-type tyrosine-protein kinase FLT3 (Homo sapiens), P36888 [R834Q]; conditions: Compound concentration 1000.0 nM
[25] = target: LIM domain kinase 2 (Homo sapiens) (UniProt P53671); conditions: Compound concentration 1000.0 nM
[26] = target: Tyrosine-protein kinase ITK/TSK (Homo sapiens) (UniProt Q08881); conditions: Compound concentration 1000.0 nM
[27] = target: Insulin-like growth factor 1 receptor (Homo sapiens) (UniProt P08069); conditions: Compound concentration 1000.0 nM
[28] = target: LIM domain kinase 1 (Homo sapiens) (UniProt P53667); conditions: Compound concentration 1000.0 nM
[29] = tested on: Phosphatidylinositol 4,5-bisphosphate 3-kinase catalytic subunit alpha isoform (Homo sapiens), P42336 [Q546K]; conditions: Compound concentration 1000.0 nM
[30] = target: Phosphatidylinositol 4-phosphate 5-kinase type-1 alpha (Homo sapiens) (UniProt Q99755); conditions: Compound concentration 1000.0 nM
[31] = tested on: Mast/stem cell growth factor receptor Kit (Homo sapiens), P10721 [D816V]; conditions: Compound concentration 1000.0 nM
[32] = tested on: Tyrosine-protein kinase ABL1 (Homo sapiens), P00519 [H396P]; conditions: Compound concentration 1000.0 nM
[33] = target: Serine/threonine-protein kinase LATS1 (Homo sapiens) (UniProt O95835); conditions: Compound concentration 1000.0 nM
[34] = target: Non-receptor tyrosine-protein kinase TYK2 (Homo sapiens) (UniProt P29597); conditions: Compound concentration 1000.0 nM
[35] = target: TRAF2 and NCK-interacting protein kinase (Homo sapiens) (UniProt Q9UKE5); conditions: Compound concentration 1000.0 nM
[36] = target: Serine/threonine-protein kinase Nek11 (Homo sapiens) (UniProt Q8NG66); conditions: Compound concentration 1000.0 nM
[37] = target: Receptor-interacting serine/threonine-protein kinase 4 (Homo sapiens) (UniProt P57078); conditions: Compound concentration 1000.0 nM
Sequence of Receptor-interacting serine/threonine-protein kinase 4 (Homo sapiens) (P57078 whole entry): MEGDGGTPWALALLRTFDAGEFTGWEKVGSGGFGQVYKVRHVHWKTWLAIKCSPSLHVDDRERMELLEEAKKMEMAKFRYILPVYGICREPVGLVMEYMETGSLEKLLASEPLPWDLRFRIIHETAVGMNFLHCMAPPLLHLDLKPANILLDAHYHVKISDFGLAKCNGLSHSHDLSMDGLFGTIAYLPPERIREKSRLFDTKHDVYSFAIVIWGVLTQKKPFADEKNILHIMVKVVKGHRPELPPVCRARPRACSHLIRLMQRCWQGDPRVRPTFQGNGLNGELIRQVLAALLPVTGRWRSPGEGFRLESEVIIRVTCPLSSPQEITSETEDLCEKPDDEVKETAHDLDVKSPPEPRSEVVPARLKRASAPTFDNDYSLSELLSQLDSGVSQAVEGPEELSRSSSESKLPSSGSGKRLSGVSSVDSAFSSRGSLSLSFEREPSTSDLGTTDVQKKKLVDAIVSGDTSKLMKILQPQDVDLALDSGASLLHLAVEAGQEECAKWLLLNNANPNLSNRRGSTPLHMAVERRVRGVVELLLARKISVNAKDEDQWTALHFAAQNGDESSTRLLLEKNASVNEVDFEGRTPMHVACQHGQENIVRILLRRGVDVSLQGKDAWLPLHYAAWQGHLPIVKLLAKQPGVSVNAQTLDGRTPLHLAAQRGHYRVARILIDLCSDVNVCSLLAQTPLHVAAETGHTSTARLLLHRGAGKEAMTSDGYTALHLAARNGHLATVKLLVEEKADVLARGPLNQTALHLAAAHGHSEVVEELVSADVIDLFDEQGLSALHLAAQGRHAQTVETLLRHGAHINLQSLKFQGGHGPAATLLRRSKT

[38] = target: Fibroblast growth factor receptor 2 (Homo sapiens) (UniProt P21802); conditions: Compound concentration 1000.0 nM
[39] = target: Delta-type opioid receptor (Homo sapiens) (UniProt P41143); conditions: Compound concentration 10.0 uM
[40] = target: Serine/threonine-protein kinase Nek5 (Homo sapiens) (UniProt Q6P3R8); conditions: Compound concentration 1000.0 nM
[41] = target: Insulin receptor (Homo sapiens) (UniProt P06213); conditions: Compound concentration 1000.0 nM
[42] = target: Cyclin-dependent kinase 5 (Homo sapiens) (UniProt Q00535); conditions: Compound concentration 1000.0 nM
Sequence of Cyclin-dependent kinase 5 (Homo sapiens) (Q00535 whole entry, looked up): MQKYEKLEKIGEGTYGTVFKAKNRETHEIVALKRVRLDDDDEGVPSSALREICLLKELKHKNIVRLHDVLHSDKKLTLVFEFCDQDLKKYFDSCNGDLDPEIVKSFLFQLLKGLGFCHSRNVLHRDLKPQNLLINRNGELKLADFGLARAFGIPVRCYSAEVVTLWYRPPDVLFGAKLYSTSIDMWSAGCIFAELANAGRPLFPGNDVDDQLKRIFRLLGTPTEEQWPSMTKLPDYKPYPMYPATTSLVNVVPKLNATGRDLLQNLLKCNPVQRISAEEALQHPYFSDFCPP

[43] = target: Mitogen-activated protein kinase kinase kinase kinase 1 (Homo sapiens) (UniProt Q92918); conditions: Compound concentration 1000.0 nM
[44] = target: Tyrosine-protein kinase SYK (Homo sapiens) (UniProt P43405); conditions: Compound concentration 1000.0 nM
[45] = target: Serine/threonine-protein kinase tousled-like 2 (Homo sapiens) (UniProt Q86UE8); conditions: Compound concentration 1000.0 nM

Sequence of Ribosomal protein S6 kinase alpha-4 (Homo sapiens) (O75676 whole entry, looked up): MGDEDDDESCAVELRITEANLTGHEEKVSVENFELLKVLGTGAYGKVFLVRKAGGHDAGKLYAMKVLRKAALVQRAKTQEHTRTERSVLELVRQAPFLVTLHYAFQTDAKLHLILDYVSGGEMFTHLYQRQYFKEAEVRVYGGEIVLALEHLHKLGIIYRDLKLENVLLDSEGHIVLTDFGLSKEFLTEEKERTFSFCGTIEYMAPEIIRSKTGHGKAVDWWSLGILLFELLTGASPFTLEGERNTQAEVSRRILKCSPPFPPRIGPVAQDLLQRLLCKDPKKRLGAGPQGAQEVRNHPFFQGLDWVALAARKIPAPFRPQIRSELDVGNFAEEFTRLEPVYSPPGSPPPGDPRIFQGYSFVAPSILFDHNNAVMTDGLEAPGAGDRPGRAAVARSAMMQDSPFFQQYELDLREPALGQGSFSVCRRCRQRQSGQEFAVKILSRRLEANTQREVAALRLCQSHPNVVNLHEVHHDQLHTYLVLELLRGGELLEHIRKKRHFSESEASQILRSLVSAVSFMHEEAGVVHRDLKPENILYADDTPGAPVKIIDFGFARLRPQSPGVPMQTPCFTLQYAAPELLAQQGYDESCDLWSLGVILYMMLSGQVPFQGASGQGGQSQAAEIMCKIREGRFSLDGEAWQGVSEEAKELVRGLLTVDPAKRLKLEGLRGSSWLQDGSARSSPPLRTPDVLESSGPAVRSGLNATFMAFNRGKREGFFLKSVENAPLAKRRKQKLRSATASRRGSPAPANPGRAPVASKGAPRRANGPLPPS

Question: Which results are given for `O=c1nc(-c2ccccn2)sc2ccccc12` [BTZO-1]?
Answer: residual activity [1]: 100%; residual activity [2]: 75%; residual activity [3]: 86%; residual activity [4]: 100%; residual activity [5]: 91%; residual activity [6]: 100%; residual activity [7]: 97%; residual activity [8]: 100%; residual activity [9]: 100%; residual activity [10]: 100%; residual activity [11]: 100%; inhibition [12]: 20.1%; residual activity [13]: 100%; inhibition [14]: 5.17%; residual activity [15]: 47%; residual activity [16]: 91%; inhibition [17]: -1.13%; residual activity [18]: 100%; residual activity [19]: 100%; inhibition [20]: 1.65%; residual activity [21]: 97%; residual activity [22]: 86%; residual activity [23]: 100%; residual activity [24]: 100%; residual activity [25]: 100%; residual activity [26]: 82%; residual activity [27]: 80%; residual activity [28]: 84%; residual activity [29]: 100%; residual activity [30]: 100%; residual activity [31]: 100%; residual activity [32]: 99%; residual activity [33]: 95%; residual activity [34]: 100%; residual activity [35]: 83%; residual activity [36]: 100%; residual activity [37]: 84%; residual activity [38]: 100%; inhibition [39]: 4.81%; residual activity [40]: 78%; residual activity [41]: 100%; residual activity [42]: 85%; residual activity [43]: 100%; residual activity [44]: 97%; residual activity [45]: 96%

Question: `O=C1NC(c2ccccn2)Sc2ccccc21` (stereo not given) [BTZO-4] was tested. Which residual activity [1] did it give?
Answer: 100%

Question: What about the residual activity [2] of the same compound?
Answer: 71%

Question: And the residual activity [3]?
Answer: 92%

Question: What about the residual activity [4] of the same compound?
Answer: 100%

Question: And the residual activity [5]?
Answer: 100%

Question: And the residual activity [6]?
Answer: 80%

Question: And the residual activity [7]?
Answer: 88%

Question: What about the residual activity [8] of the same compound?
Answer: 75%

Question: What about the residual activity [9] of the same compound?
Answer: 100%

Question: And the residual activity [10]?
Answer: 100%

Question: What about the residual activity [11] of the same compound?
Answer: 66%

Question: And the inhibition [12]?
Answer: 32.4%

Question: What about the residual activity [13] of the same compound?
Answer: 76%

Question: What about the inhibition [14] of the same compound?
Answer: 13.7%

Question: What about the residual activity [15] of the same compound?
Answer: 42%

Question: And the residual activity [16]?
Answer: 88%

Question: And the inhibition [17]?
Answer: -0.383%

Question: And the residual activity [18]?
Answer: 100%

Question: What about the residual activity [19] of the same compound?
Answer: 91%

Question: What about the inhibition [20] of the same compound?
Answer: 4.68%

Question: What about the residual activity [21] of the same compound?
Answer: 100%

Question: What about the residual activity [22] of the same compound?
Answer: 88%

Question: What about the residual activity [23] of the same compound?
Answer: 77%

Question: What about the residual activity [24] of the same compound?
Answer: 81%

Question: And the residual activity [25]?
Answer: 92%

Question: What about the residual activity [26] of the same compound?
Answer: 77%

Question: And the residual activity [27]?
Answer: 80%

Question: And the residual activity [28]?
Answer: 78%

Question: What about the residual activity [29] of the same compound?
Answer: 100%

Question: What about the residual activity [30] of the same compound?
Answer: 100%

Question: And the residual activity [31]?
Answer: 100%

Question: What about the residual activity [32] of the same compound?
Answer: 84%

Question: And the residual activity [33]?
Answer: 98%

Question: What about the residual activity [34] of the same compound?
Answer: 88%

Question: And the residual activity [35]?
Answer: 100%

Question: What about the residual activity [36] of the same compound?
Answer: 95%

Question: And the residual activity [37]?
Answer: 72%

Question: What about the residual activity [38] of the same compound?
Answer: 100%

Question: And the inhibition [39]?
Answer: -0.624%

Question: What about the residual activity [40] of the same compound?
Answer: 72%

Question: And the residual activity [41]?
Answer: 88%

Question: And the residual activity [42]?
Answer: 86%

Question: And the residual activity [43]?
Answer: 95%

Question: And the residual activity [44]?
Answer: 75%

Question: What about the residual activity [45] of the same compound?
Answer: 96%
